Test results published in article PMC11650638, “In Vivo Activity Profiling of Biosynthetic Darobactin D22 against Critical Gram-Negative Pathogens” (ACS Infectious Diseases, 2024).
Where two headings read alike, the source gives them in different places.

What was measured:
[1] = test system: Escherichia coli 106-09; test: Murine peritonitis/sepsis model; format: in vivo, CD-1 female mice; settings: 40 mg/kg SC q6h
Experimental: Mice were infected IP (Figure S7). […]
(§1) reduce stress and harm arising from experimental procedures, including use of analgesia, access to wet food and additional bedding. The room temperature, relative humidity and maximum background noise were maintained according to Home Office Code of Practice. Mice were exposed to 12-hour light/dark […]
(§2) Mice were immunosuppressed using cyclophosphamide administered subcutaneously (SC) at 150 mg/kg on day minus 4 and at 100 mg/kg on day minus 1 relative to the day of infection. Following […]
CFU/thigh P. aeruginosa PAO1 by intramuscular (IM) injection of 50 µL bacterial suspension into both thighs. Following infection, a single dose of carprofen was administered SC to provide pain relief.
One hour post-inoculation, one group of mice were euthanized to quantify the pre-treatment bacterial burden. […]
At eight or 25 hours post infection, mice were euthanized by overdose of pentobarbitone and death confirmed by cervical dislocation. […] The bacterial burden was quantified following overnight incubation of agar plates at 37°C. For analytical purposes, burdens from individual thighs were counted as independent […]
intravenously. Mice were observed during the study and scored 0 – 4 based on their behavior and clinical signs of discomfort and euthanized at the humane endpoint as a surrogate marker for death. […]

[2] = test system: Escherichia coli; test: MIC50/MIC90 determination and MIC against isolates of E. coli; format: cell-based
[3] = test system: Pseudomonas aeruginosa; test: MIC50/MIC90 determination and MIC against isolates of P. aeruginosa; format: cell-based
[4] = test system: Acinetobacter baumannii; test: MIC50/MIC90 determination and MIC against isolates of A. baumannii; format: cell-based
[5] = test system: Klebsiella pneumoniae; test: MIC50/MIC90 determination and MIC against isolates of K. pneumoniae; format: cell-based
[6] = test system: Pseudomonas aeruginosa PAO1; test: Murine neutropenic thigh infection model; format: in vivo, CD-1 mice; settings: 8 h, 20 mg/kg
Experimental: Zg, Committee on Animal Research Ethics-Zagreb) in collaboration with the Croatian Competent Authority and the National Ethics Committee, granting this project a 5-year authorisation, in compliance […]
Animals: The study was performed in male, 6–7 weeks old C57BL/6 mice. Animals were housed in a temperature-controlled room (22±2°C), relative humidity 55±10%, 15–20 air changes per hour, atrificial […]
Sampling: Serial or terminal blood samples were collected into EDTA-coated tubes at the following […]
into Precellys® tubes for all animals. Additional, terminal tissue samples were taken at 1 h for the IV and IP groups. For the SC and IT groups, terminal tissue samples were further taken at 2, 4, 8 h. Urine […]
samples (3 animals) were collected into emtpy tubes and kept chilled, followed by centrifugation at 3000 rpm, 10 min, 4°C. Total urine volume was recorded. […]
as §1, §2

C[C@@H](O)[C@H]1C(=O)N2C(C(=O)O)=C(S[C@@H]3CN[C@H](C(=O)N(C)C)C3)[C@H](C)[C@H]12 [MER, Meropenem]
–4.33 log CFU/mL: Δlog CFU/mL PF compared to SOT [1]
–2.98 log CFU/mL: Δlog CFU/mL Blood compared to SOT [1]

O=C(O)c1cn(C2CC2)c2cc(N3CCNCC3)c(F)cc2c1=O [Ciprofloxacin, ciprofloxacin]
–4.06 log CFU/g: Δlog CFU/g in thigh muscle [6]
4 µg/mL: MIC ([3]; Pseudomonas aeruginosa, ATCCBAA2114, isolate ATCC BAA-2114, read-out: MIC) | MIC ([3]; Pseudomonas aeruginosa, isolate CAE 02, read-out: MIC) | MIC ([5]; Klebsiella pneumoniae, NCTC13442, isolate NCTC13442)
16 µg/mL: MIC ([3]; Pseudomonas aeruginosa, isolate BOR 05, read-out: MIC) | MIC ([3]; Pseudomonas aeruginosa, isolate ROU 01, read-out: MIC) | MIC ([4]; Acinetobacter baumannii, ATCC51432, isolate ATCC51432, read-out: MIC) | MIC ([5]; Klebsiella pneumoniae, NCTC13439, isolate NCTC13439)
0.063 to 0.125 µg/mL: MIC ([2]; Escherichia coli)
1 µg/mL: MIC ([3]; Pseudomonas aeruginosa, PAO1, isolate PAO1, read-out: MIC)
8 µg/mL: MIC ([4]; Acinetobacter baumannii, isolate R831, read-out: MIC)
4 to 8 µg/mL: MIC ([4]; Acinetobacter baumannii, ATCCBAA1878, isolate ATCC BAA-1878, read-out: MIC)
0.5 µg/mL: MIC ([3]; Pseudomonas aeruginosa, CIP105381, isolate CIP 105381, read-out: MIC) | MIC ([3]; Pseudomonas aeruginosa, isolate CHA, read-out: MIC) | MIC ([3]; Pseudomonas aeruginosa, isolate R2255, read-out: MIC) | MIC ([3]; Pseudomonas aeruginosa, isolate SDE 05, read-out: MIC) | MIC ([4]; Acinetobacter baumannii, ATCC17978, isolate ATCC17978, read-out: MIC) | MIC ([4]; Acinetobacter baumannii, ATCC19187, isolate ATCC19187, read-out: MIC) | MIC ([4]; Acinetobacter baumannii, ATCCBAA747, isolate ATCC BAA-747, read-out: MIC)
> 32 µg/mL: MIC ([4]; Acinetobacter baumannii, ATCCBAA1605, isolate ATCC BAA-1605, read-out: MIC) | MIC ([4]; Acinetobacter baumannii, ATCCBAA1791, isolate ATCC BAA-1791, read-out: MIC) | MIC ([4]; Acinetobacter baumannii, ATCCBAA1795, isolate ATCC BAA-1795, read-out: MIC) | MIC ([4]; Acinetobacter baumannii, CIP107292, isolate CIP 107292, read-out: MIC) | MIC ([4]; Acinetobacter baumannii, NCTC13301, isolate NCTC13301, read-out: MIC) | MIC ([4]; Acinetobacter baumannii, isolate G478 (AYE), read-out: MIC)
0.125 to 0.25 µg/mL: MIC ([4]; Acinetobacter baumannii, CIP105742, isolate CIP 105742, read-out: MIC)
32 µg/mL: MIC ([4]; Acinetobacter baumannii, ATCCBAA1710, isolate ATCC BAA-1710, read-out: MIC) | MIC ([4]; Acinetobacter baumannii, isolate BM4454, read-out: MIC) | MIC ([4]; Acinetobacter baumannii, isolate R835, read-out: MIC)

colistin
16 µg/mL: MIC ([5]; isolate CIP 104298)
1 to 2 µg/mL: MIC ([2]; isolate ATCC BAA-2471) | MIC ([2]; isolate CIP 104103) | MIC ([2]; isolate CIP 105706) | MIC ([2]; isolate R2670)
4 µg/mL: MIC ([3]; isolate BOR 04) | MIC ([3]; isolate BOR 05) | MIC ([3]; isolate CHRU LILLE VAP11) | MIC ([3]; isolate CHRU LILLE VAP65a) | MIC ([3]; isolate NANC 06) | MIC ([3]; isolate PAO1) | MIC ([3]; isolate PBI 01) | MIC ([3]; isolate PGP 02) | MIC ([3]; isolate R1541) | MIC ([3]; isolate R2254) | MIC ([3]; isolate ROU 01) | MIC ([4]; isolate ATCC17978) | MIC ([4]; isolate ATCC19187) | MIC ([4]; isolate ATCC19606) | MIC ([4]; isolate ATCC BAA-747) | MIC ([4]; isolate ATCC BAA-1878) | MIC ([4]; isolate BM4652 (efflux mutant)) | MIC ([4]; isolate DSM 30008) | MIC ([5]; isolate ATCC BAA-2342)
2 to 4 µg/mL: MIC ([2]; isolate ATCC25922) | MIC ([2]; isolate CIP 107049) | MIC ([2]; isolate NCTC10418) | MIC ([2]; isolate NCTC13352) | MIC ([2]; isolate PRAA3) | MIC ([2]; isolate PRAA21) | MIC ([3]; isolate CLI 02) | MIC ([3]; isolate TOUL 01) | MIC ([4]; isolate ATCC19003)
1 µg/mL: MIC ([2]; isolate G41 (second listing)) | MIC ([2]; isolate G487) | MIC ([2]; isolate NCTC13400) | MIC ([2]; isolate PRAA1) | MIC ([2]; isolate R996) | MIC ([5]; isolate ATCC13883) | MIC ([5]; isolate ATCC43816) | MIC ([5]; isolate ATCC BAA-1903) | MIC ([5]; isolate ATCC BAA-2470) | MIC ([5]; isolate ATCC BAA-2473) | MIC ([5]; isolate CIP 104119) | MIC ([5]; isolate Clinical Lyo-01) | MIC ([5]; isolate Clinical Lyo-02) | MIC ([5]; isolate Clinical Lyo-04) | MIC ([5]; isolate Clinical Lyo-05) | MIC ([5]; isolate G52) | MIC ([5]; isolate G197) | MIC ([5]; isolate G201) | MIC ([5]; isolate G306) | MIC ([5]; isolate NCTC13438) | MIC ([5]; isolate NCTC13442) | MIC ([5]; isolate NCTC13443) | MIC ([5]; isolate R750) | MIC ([5]; isolate R1242) | MIC ([5]; isolate R1525) | MIC ([5]; isolate R2673)
2 to 8 µg/mL: MIC ([4]; isolate G478 (AYE))
4 to 8 µg/mL: MIC ([4]; isolate ATCC BAA-1710) | MIC ([4]; isolate BM4454) | MIC ([4]; isolate CIP 107292) | MIC ([4]; isolate R831) | MIC ([4]; isolate R835)
2 µg/mL: MIC ([2]; isolate ATCC BAA-2340) | MIC ([2]; isolate ATCC BAA-2469) | MIC ([2]; isolate G38) | MIC ([2]; isolate G41 (first listing)) | MIC ([2]; isolate G260) | MIC ([2]; isolate G264) | MIC ([2]; isolate G409) | MIC ([2]; isolate G486) | MIC ([2]; isolate NCTC13441) | MIC ([2]; isolate PRAA17) | MIC ([2]; isolate PRAA18) | MIC ([2]; isolate R721) | MIC ([2]; isolate R995) | MIC ([2]; isolate R1535) | MIC ([3]; isolate ATCC BAA-2114) | MIC ([3]; isolate CAE 02) | MIC ([3]; isolate CHA) | MIC ([3]; isolate CIP 105250) | MIC ([3]; isolate CIP 105381) | MIC ([3]; isolate CIP 107051) | MIC ([3]; isolate CLI 03) | MIC ([3]; isolate COL 03) | MIC ([3]; isolate DIJ 02) | MIC ([3]; isolate NANC 01) | MIC ([3]; isolate NCTC13437) | MIC ([3]; isolate PA 43) | MIC ([3]; isolate PBI 03G) | MIC ([3]; isolate PBI 07) | MIC ([3]; isolate R2255) | MIC ([3]; isolate R2256) | MIC ([3]; isolate SDE 05) | MIC ([3]; isolate STR 02) | MIC ([4]; isolate ATCC27224) | MIC ([4]; isolate ATCC BAA-1605) | MIC ([4]; isolate ATCC BAA-1791) | MIC ([4]; isolate CIP 105742) | MIC ([5]; isolate ATCC BAA-1705) | MIC ([5]; isolate ATCC BAA-2472) | MIC ([5]; isolate CIP 105705) | MIC ([5]; isolate CIP 106982) | MIC ([5]; isolate Clinical Lyo-03) | MIC ([5]; isolate NCTC13439)
64 µg/mL: MIC ([5]; isolate ATCC13883 ColR_)
8 µg/mL: MIC ([2]; isolate NCTC13846) | MIC ([4]; isolate ATCC51432) | MIC ([4]; isolate ATCC BAA-1795) | MIC ([4]; isolate NCTC13301)
